Measurements: PubChem BioAssay (NCI)
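Five concentrations, 48 hours, 96-well plates. TGI denotes the concentration required for complete inhibition of growth.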

Experiments:
Assay in all cases: NCI tumour cell line growth inhibition, 48 h
[1] = tested on: SK-MEL-5 melanoma
[2] = tested on: OVCAR-5 ovarian
[3] = tested on: RPMI-8226 leukemia
[4] = tested on: SW-620 colon
[5] = tested on: UO-31 renal
[6] = tested on: RXF 393 renal
[7] = tested on: COLO 205 colon
[8] = tested on: SF-268 CNS
[9] = tested on: EKVX NSCLC
[10] = tested on: U251 CNS
[11] = tested on: SK-OV-3 ovarian
[12] = tested on: HCT-116 colon
[13] = tested on: 786-0 renal
[14] = tested on: SF-539 CNS
[15] = tested on: IGROV1 ovarian
[16] = tested on: DLD-1 colon
[17] = tested on: LOX IMVI melanoma
[18] = tested on: NCI-H23 lung
[19] = tested on: SR leukemia
[20] = tested on: NCI-H460 lung
[21] = tested on: KM12 colon
[22] = tested on: OVCAR-3 ovarian
[23] = tested on: HOP-92 NSCLC
[24] = tested on: SNB-78 CNS
[25] = tested on: LXFL 529 NSCLC
[26] = tested on: XF 498 CNS
[27] = tested on: UACC-62 melanoma
[28] = tested on: NCI-H522 lung
[29] = tested on: RXF-631 renal
[30] = tested on: SN12C renal
[31] = tested on: SNB-19 CNS
[32] = tested on: SF-295 CNS
[33] = tested on: MOLT-4 leukemia
[34] = tested on: TK-10 renal
[35] = tested on: OVCAR-4 ovarian
[36] = tested on: M14 melanoma
[37] = tested on: HT29 colon
[38] = tested on: HOP-62 NSCLC
[39] = tested on: K-562 leukemia
[40] = tested on: M19-MEL melanoma
[41] = tested on: MALME-3M melanoma
[42] = tested on: DMS 114 small cell lung
[43] = tested on: HOP-18 NSCLC
[44] = tested on: CAKI-1 renal
[45] = tested on: ACHN renal
[46] = tested on: A498 renal
[47] = tested on: OVCAR-8 ovarian
[48] = tested on: HL-60(TB) leukemia
[49] = tested on: DMS 273 small cell lung
[50] = tested on: HCT-15 colon
[51] = tested on: HCC-2998 colon
[52] = tested on: SNB-75 CNS
[53] = tested on: KM20L2 colon
[54] = tested on: A549 NSCLC
[55] = tested on: UACC-257 melanoma
[56] = tested on: SK-MEL-28 melanoma
[57] = tested on: NCI-H226 lung
[58] = tested on: SK-MEL-2 melanoma
[59] = tested on: MCF7 breast
[60] = tested on: NCI/ADR-RES ovarian
[61] = tested on: P388/ADR leukemia
[62] = tested on: SN12K1 renal
[63] = tested on: CCRF-CEM leukemia
[64] = tested on: P388 leukemia

Cc1ccc(S(=O)OC2c3ccccc3Cc3ccccc32)cc1 (configuration not stated)
TGI [1]: 37.1 µM
TGI [2]: 31.7 µM
TGI [3]: > 100 µM
TGI [4]: 59.6 µM
TGI [5]: 45.7 µM
TGI [6]: 26.8 µM
TGI [7]: 31.5 µM
TGI [8]: 47.1 µM
TGI [9]: 34.5 µM
TGI [10]: 78.5 µM
TGI [11]: 41.9 µM
TGI [12]: 35.8 µM
TGI [13]: 48.1 µM
TGI [14]: 40.2 µM
TGI [15]: 45.6 µM
TGI [16]: 58.5 µM
TGI [17]: 28.8 µM
TGI [18]: 33.8 µM
TGI [19]: 70.8 µM
TGI [20]: 46.2 µM
TGI [21]: 39.2 µM
TGI [22]: 44.5 µM
TGI [23]: 36.5 µM
TGI [24]: 46.1 µM
TGI [25]: 31.1 µM
TGI [26]: 30.3 µM
TGI [27]: 31.8 µM
TGI [28]: 27.1 µM
TGI [29]: 40.2 µM
TGI [30]: 49.6 µM
TGI [31]: 59 µM
TGI [32]: 62.6 µM
TGI [33]: 75.7 µM
TGI [34]: 64.3 µM
TGI [35]: 33.2 µM
TGI [36]: 33.8 µM
TGI [37]: > 100 µM
TGI [38]: 34.3 µM
TGI [39]: 62.1 µM
TGI [40]: 40.8 µM
TGI [41]: 26.7 µM
TGI [42]: 34.8 µM
TGI [43]: 59.4 µM
TGI [44]: 56.3 µM
TGI [45]: 49 µM
TGI [46]: 42.8 µM
TGI [47]: 28.9 µM
TGI [48]: 44 µM
TGI [49]: 33 µM
TGI [50]: 44.5 µM
TGI [51]: 33.8 µM
TGI [52]: 34.6 µM
TGI [53]: 47.2 µM
TGI [54]: 87.2 µM
TGI [55]: 34.9 µM
TGI [56]: 33.8 µM
TGI [57]: 37.1 µM

ClCc1nnc2n1-c1ccc(Cl)cc1SC2
TGI [1]: 9.49 µM
TGI [2]: 24.6 µM
TGI [3]: > 100 µM
TGI [4]: 24 µM
TGI [5]: 30.3 µM
TGI [58]: 9.22 µM
TGI [6]: 9.79 µM
TGI [7]: 13 µM
TGI [8]: 9.55 µM
TGI [9]: > 51.9 µM
TGI [10]: 19.8 µM
TGI [59]: 12.2 µM
TGI [11]: 12.6 µM
TGI [12]: 12.7 µM
TGI [14]: 13.2 µM
TGI [15]: 8.09 µM
TGI [60]: 4.76 µM
TGI [17]: 2.82 µM
TGI [18]: 8.2 µM
TGI [20]: 14 µM
TGI [21]: 15.1 µM
TGI [22]: 8.09 µM
TGI [23]: 9.26 µM
TGI [24]: 18.9 µM
TGI [26]: 20 µM
TGI [61]: > 25.2 µM
TGI [27]: 8.51 µM
TGI [28]: 3.21 µM
TGI [30]: 29.6 µM
TGI [31]: 25.7 µM
TGI [32]: 15.5 µM
TGI [33]: 3.98 µM
TGI [35]: 12.6 µM
TGI [37]: 10.2 µM
TGI [38]: 17.4 µM
TGI [39]: > 100 µM
TGI [40]: 10.4 µM
TGI [41]: 15.8 µM
TGI [42]: 9.58 µM
TGI [43]: 13.2 µM
TGI [62]: 7.86 µM
TGI [63]: 8.42 µM
TGI [64]: 4.24 µM
TGI [46]: 16.1 µM
TGI [47]: > 39.5 µM
TGI [48]: 3.51 µM
TGI [49]: 13 µM
TGI [50]: 23.8 µM
TGI [51]: 11 µM
TGI [52]: 10.3 µM
TGI [53]: 15.9 µM
TGI [54]: 20.3 µM
TGI [55]: 9.8 µM
TGI [56]: 17.6 µM
TGI [57]: 5.64 µM
